Source: ChEMBL document CHEMBL5150076, “Discovery of Novel Orally Bioavailable Triazoles with Potent and Broad-Spectrum Antifungal Activity In Vitro and In Vivo” (J Med Chem, 2022)
In brackets after ≈: the same amount, converted by molar mass. Activity calls are given as the source filed them. No cut-off for these calls is given here.

Legend:
[1] = test system: Cryptococcus neoformans; test: Antifungal activity against Cryptococcus neoformans H99 incubated for 72 hrs by microbroth dilution method; assay type: functional
[2] = test system: Candida albicans; test: Antifungal activity against Candida albicans SC5314 incubated for 24 hrs by microbroth dilution method; assay type: functional
[3] = test system: Aspergillus fumigatus; test: Antifungal activity against Aspergillus fumigatus 7544 incubated for 48 hrs by microbroth dilution method; assay type: functional
[4] = test system: Candida albicans; test: Antifungal activity against Candida albicans Y0109; assay type: functional
[5] = test system: Candida parapsilosis; test: Antifungal activity against Candida parapsilosis 22019; assay type: functional; conditions: Lodderomyces parapsilosis
[6] = test system: Cryptococcus neoformans; test: Antifungal activity against Cryptococcus neoformans 32605; assay type: functional
[7] = test system: Nakaseomyces glabratus; test: Antifungal activity against Candida glabrata 537; assay type: functional
[8] = test system: Trichophyton rubrum; test: Antifungal activity against Trichophyton rubrum cmccftla; assay type: functional
[9] = test system: Nannizzia gypsea; test: Antifungal activity against Microsporum gypseum; assay type: functional
[10] = test system: Candida albicans; test: Antifungal activity against Candida albicans 12#; assay type: functional
[11] = test system: Candida albicans; test: Antifungal activity against Candida albicans 25#; assay type: functional
[12] = test system: Candida albicans; test: Antifungal activity against Candida albicans 162; assay type: functional
[13] = test system: Candida albicans; test: Antifungal activity against Candida albicans 14#; assay type: functional
[14] = test system: Candida albicans; test: Antifungal activity against Candida albicans 305; assay type: functional
[15] = test system: Candida albicans; test: Antifungal activity against Candida albicans 20#; assay type: functional
[16] = test system: Candida albicans; test: Antifungal activity against Candida albicans 28#; assay type: functional
[17] = test system: Candida parapsilosis; test: Antifungal activity against Candida parapsilosis 660; assay type: functional; conditions: Lodderomyces parapsilosis
[18] = test system: Candida parapsilosis; test: Antifungal activity against Candida parapsilosis 90018; assay type: functional; conditions: Lodderomyces parapsilosis
[19] = test system: Candida parapsilosis; test: Antifungal activity against Candida parapsilosis 700; assay type: functional; conditions: Lodderomyces parapsilosis
[20] = test system: Candida tropicalis; test: Antifungal activity against Candida tropicalis 112936; assay type: functional
[21] = test system: Candida tropicalis; test: Antifungal activity against Candida tropicalis ATCC750; assay type: functional
[22] = test system: Pichia kudriavzevii; test: Antifungal activity against Candida krusei 463; assay type: functional
[23] = test system: Pichia kudriavzevii; test: Antifungal activity against Candida krusei 629; assay type: functional
[24] = test system: Pichia kudriavzevii; test: Antifungal activity against Candida krusei 397; assay type: functional
[25] = test system: Pichia kudriavzevii; test: Antifungal activity against Candida krusei 467; assay type: functional
[26] = test system: Nakaseomyces glabratus; test: Antifungal activity against Candida glabrata ATCC2001; assay type: functional
[27] = test system: [Candida] auris; test: Antifungal activity against Candida auris 791; assay type: functional; conditions: Candidozyma auris
[28] = test system: [Candida] auris; test: Antifungal activity against Candida auris BS12372; assay type: functional; conditions: Candidozyma auris
[29] = test system: [Candida] auris; test: Antifungal activity against Candida auris 887; assay type: functional; conditions: Candidozyma auris
[30] = test system: [Candida] auris; test: Antifungal activity against Candida auris D12; assay type: functional; conditions: Candidozyma auris
[31] = Induction of drug resistance in Candida albicans SC5314 assessed as increase in MIC after 2 weeks (reference value: 0.5 microg/ml); assay type: functional; conditions: SC5314, 336 h
[32] = Induction of drug resistance in Candida albicans SC5314 assessed as increase in MIC after 26 days; assay type: functional; conditions: SC5314, 624 h, time 26 day
[33] = biological target: T1, Lanosterol 14-alpha demethylase (Candida albicans (strain SC5314 / ATCC MYA-2876) (Yeast), UniProt P10613); test: Inhibition of CYP51 in Candida albicans SC5314 assessed as lanosterol level at 4 ug/ml measured after 12 hrs by GC-MS analysis (reference value: 2.18%); parameters: scale not given: the % may be the effect or the level left; conditions: at 4 µg/mL
[34] = biological target: T1, Lanosterol 14-alpha demethylase; test: Inhibition of CYP51 in Candida albicans SC5314 assessed as lanosterol level at 0.5 ug/ml measured after 12 hrs by GC-MS analysis (reference value: 2.18%); parameters: scale not given: the % may be the effect or the level left; conditions: at 0.5 µg/mL
[35] = biological target: T1, Lanosterol 14-alpha demethylase; test: Inhibition of CYP51 in Candida albicans SC5314 assessed as ergosterol level at 4 ug/ml measured after 12 hrs by GC-MS analysis (reference value: 72.58%); parameters: scale not given: the % may be the effect or the level left; conditions: at 4 µg/mL
[36] = biological target: T1, Lanosterol 14-alpha demethylase; test: Inhibition of CYP51 in Candida albicans SC5314 assessed as eburicol level at 4 ug/ml measured after 12 hrs by GC-MS analysis (reference value: 0.00%); parameters: scale not given: the % may be the effect or the level left; conditions: at 4 µg/mL
[37] = biological target: T1, Lanosterol 14-alpha demethylase; test: Inhibition of CYP51 in Candida albicans SC5314 assessed as eburicol level at 0.5 ug/ml measured after 12 hrs by GC-MS analysis (reference value: 0.00%); parameters: scale not given: the % may be the effect or the level left; conditions: at 0.5 µg/mL
[38] = biological target: T1, Lanosterol 14-alpha demethylase; test: Inhibition of CYP51 in Candida albicans SC5314 assessed as sterol level at 4 ug/ml measured after 12 hrs by GC-MS analysis (reference value: 25.23%); parameters: scale not given: the % may be the effect or the level left; conditions: at 4 µg/mL
[39] = biological target: T1, Lanosterol 14-alpha demethylase; test: Inhibition of CYP51 in Candida albicans SC5314 assessed as sterol level at 0.5 ug/ml measured after 12 hrs by GC-MS analysis (reference value: 25.23%); parameters: scale not given: the % may be the effect or the level left; conditions: at 0.5 µg/mL
[40] = test system: Candida albicans; test: Antifungal activity against Candida albicans SC5314 infected in ICR mouse assessed as delay in mortality at 0.5 mg/kg, po qd infected with fungus for 2 hrs prior to compound addition for 7 days and measured for 20 days; assay type: functional, organism-based; conditions: time 20.0 day
[41] = test system: Candida albicans; test: Antifungal activity against Candida albicans SC5314 infected in ICR mouse assessed as median survival time at 0.5 mg/kg, po qd infected with fungus for 2 hrs prior to compound addition for 7 days and measured for 20 days; assay type: functional; conditions: time 20 day
[42] = test system: Cryptococcus neoformans; test: Antifungal activity against Cryptococcus neoformans H99 infected in ICR mouse assessed as delay in mortality at 2 mg/kg, po qd infected with fungus for 2 hrs prior to compound addition for 7 days and measured for 20 days; assay type: functional, organism-based; conditions: time 20.0 day
[43] = test system: Cryptococcus neoformans; test: Antifungal activity against Cryptococcus neoformans H99 infected in ICR mouse assessed as median survival time at 2 mg/kg, po qd infected with fungus for 2 hrs prior to compound addition for 7 days and measured for 20 days; assay type: functional; conditions: time 20 day
[44] = test system: Candida albicans; test: Antifungal activity against Candida albicans 100 infected in ICR mouse assessed as delay in mortality at 0.25 mg/kg, po qd infected with fungus for 2 hrs prior to compound addition for 7 days and measured for 20 days; assay type: functional, organism-based; conditions: time 20.0 day
[45] = test system: Candida albicans; test: Antifungal activity against Candida albicans 100 infected in ICR mouse assessed as median survival time at 0.25 mg/kg, po qd infected with fungus for 2 hrs prior to compound addition for 7 days and measured for 20 days; assay type: functional; conditions: time 20 day
[46] = Cytotoxicity against HUVEC assessed as cell viability at 64 ug/ml incubated for 24 hrs by CCK-8 assay; assay type: toxicity, cell-based; conditions: human, HUVEC cells, at 64 µg/mL, read-out: Activity
[47] = Induction of hemolysis in rabbit RBC at 64 ug/ml incubated for 1 hr; assay type: toxicity, cell-based, Oryctolagus cuniculus, Erythrocyte; conditions: red blood cells, at 64 µg/mL, read-out: Activity
[48] = in vitro; conditions: human, Caco-2 cells; at 64 µg/mL
[49] = Induction of hemolysis in rabbit RBC at 16 ug/ml incubated for 1 hr; assay type: toxicity, cell-based, Oryctolagus cuniculus, Erythrocyte; conditions: red blood cells, at 16 µg/mL, read-out: Activity
[50] = Induction of hemolysis in rabbit RBC at 32 ug/ml incubated for 1 hr; assay type: toxicity, cell-based, Oryctolagus cuniculus, Erythrocyte; conditions: red blood cells, at 32 µg/mL, read-out: Activity

T1 sequence (P10613 whole entry): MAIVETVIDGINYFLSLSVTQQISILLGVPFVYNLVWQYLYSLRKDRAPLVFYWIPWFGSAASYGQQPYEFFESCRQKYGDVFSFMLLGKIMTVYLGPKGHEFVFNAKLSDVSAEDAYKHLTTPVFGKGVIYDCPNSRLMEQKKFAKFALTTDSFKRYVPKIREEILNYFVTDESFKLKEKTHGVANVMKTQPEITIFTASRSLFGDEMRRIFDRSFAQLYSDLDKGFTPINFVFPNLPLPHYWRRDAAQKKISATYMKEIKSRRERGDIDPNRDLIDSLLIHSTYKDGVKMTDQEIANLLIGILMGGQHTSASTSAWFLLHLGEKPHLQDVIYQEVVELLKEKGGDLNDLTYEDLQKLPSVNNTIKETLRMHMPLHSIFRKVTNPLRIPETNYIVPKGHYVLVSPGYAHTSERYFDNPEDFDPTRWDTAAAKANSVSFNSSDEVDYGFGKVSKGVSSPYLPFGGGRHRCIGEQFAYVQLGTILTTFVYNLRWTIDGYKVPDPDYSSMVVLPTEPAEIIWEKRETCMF

OC(Cn1cncn1)(Cn1cncn1)c1ccc(F)cc1F [FLUCONAZOLE]
MIC [1]: 0.5 mg/L (≈ 1.63 µM) | MIC [2]: 0.5 mg/L (≈ 1.63 µM) | MIC [3]: > 64 mg/L | MIC [4]: 0.25 mg/L (≈ 0.816 µM) | MIC [5]: 2 mg/L (≈ 6.53 µM) | MIC [6]: 0.5 mg/L (≈ 1.63 µM) | MIC [7]: 2 mg/L (≈ 6.53 µM) | MIC [8]: 8 mg/L (≈ 26.1 µM) | MIC [9]: 32 mg/L (≈ 104 µM) | MIC [10]: > 64 mg/L | MIC [11]: > 64 mg/L | MIC [12]: > 64 mg/L | MIC [13]: > 64 mg/L | MIC [14]: > 64 mg/L | MIC [15]: 0.5 mg/L (≈ 1.63 µM) | MIC [16]: 2 mg/L (≈ 6.53 µM) | MIC [17]: 0.5 mg/L (≈ 1.63 µM) | MIC [18]: 0.5 mg/L (≈ 1.63 µM) | MIC [19]: 2 mg/L (≈ 6.53 µM) | MIC [20]: > 64 mg/L | MIC [21]: > 64 mg/L | MIC [22]: 4 mg/L (≈ 13.1 µM) | MIC [23]: 4 mg/L (≈ 13.1 µM) | MIC [24]: 2 mg/L (≈ 6.53 µM) | MIC [25]: 4 mg/L (≈ 13.1 µM) | MIC [26]: 2 mg/L (≈ 6.53 µM) | MIC [27]: > 64 mg/L | MIC [28]: > 64 mg/L | MIC [29]: > 64 mg/L | MIC [30]: > 64 mg/L | MIC [31]: 4 mg/L | MIC [32]: 16 mg/L | Activity [33]: 5.73% | Activity [34]: 18.14% | Activity [35]: 0.62% | Activity [36]: 87.88% | Activity [37]: 2.61% | Activity [38]: 5.77% | Activity [39]: 4.69% | Activity [40]: Active | Time [41]: 14 days | Activity [42]: Active | Time [43]: 8.5 days | Activity [44]: Active | Time [45]: 8.5 days | viability at 24 h, 64 ug/ml [46]: 88.4% | hemolysis at 1 h, 64 ug/ml [47]: 1.01% | viability at 24 h, 64 ug/ml [48]: 101%

C[C@@H]1[C@H](O)[C@@H](C)/C=C/C=C/C=C/C=C/C=C/C=C/C=C/[C@H](O[C@@H]2O[C@H](C)[C@@H](O)[C@H](N)[C@@H]2O)C[C@@H]2O[C@](O)(C[C@@H](O)C[C@@H](O)[C@H](O)CC[C@@H](O)C[C@@H](O)CC(=O)O[C@H]1C)C[C@H](O)[C@H]2C(=O)O [AMPHOTERICIN B]
viability at 24 h, 64 ug/ml [46]: 78.2% | hemolysis at 1 h, 16 ug/ml [49]: 24.7% | hemolysis at 1 h, 32 ug/ml [50]: 65.2% | hemolysis at 1 h, 64 ug/ml [47]: 102% | viability at 24 h, 64 ug/ml [48]: 63.3%
